Our source for the IC50 values is patent publication US20170334899A1, “AMINO-SUBSTITUTED ISOTHIAZOLES” (Bayer Pharma Aktiengesellschaft, priority 2014, published 2017).

For assay [1], the system named is human cervical tumor cell line HeLa (ATCC CCL-2). The experiment in a line: SAC-Formation - Paclitaxel-Induced Assay. Type of assay: cell-based. To be noted: Homo sapiens, HeLa, 24 h, HeLa cells, paclitaxel 0.05 μM, test range 0.005 μM-20 μM, read-out: IC50 [mol/l] SAC-Formation - Paclitaxel-Induced Assay. Put shortly: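 Read-out is high-content imaging of anti-phospho-H3 Ser10 (mitosis) and Hoechst 33342 (DNA, cell number), with decreased mitotic fraction marking checkpoint breakthrough. Compounds (0.005–20 μM) and 0.05 μM paclitaxel co-added to overnight-plated HeLa for 24 h at 37° C; four-parameter Hill fit.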

Another assay has as its target T1, CDK2/CycE (Homo sapiens, UniProt P24941).
T1 construct: GST; purchased ProQinase GmbH (Freiburg, Germany); host or cells: insect cells (Sf9)
The experiment in a line: CDK2/CycE kinase assay (TR-FRET). Format: biochemical. To be noted: avg, read-out: CDK2 avg (IC50 [mol/l]). The essentials: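 Read-out is a TR-FRET 665/620 nm emission ratio from EDTA-stopped reactions detected with anti-pRB(pSer807/pSer811), Eu-labelled anti-mouse IgG and streptavidin-XL665, scaled between no-enzyme and uninhibited wells. Reaction: Sf9-expressed GST-CDK2/GST-CycE, 15 min compound preincubation, 10 μM ATP, 0.75 μM biotin-peptide, 25 min, 22° C., pH 8.0 Tris buffer.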

For the compound `Cc1nsc(Nc2cncc(C(F)(F)F)n2)c1C(=O)Nc1ccc(OC2CCNCC2)nc1` [Example 13, 3-Methyl-N-[6-(piperidin-4-yloxy)pyridin-3-yl]-5-{[6-(trifluoromethyl)pyrazin-2-yl]-amino}-1,2-thiazole-4-carboxamide], the IC50 in assay [1] is 13 µM; on CDK2/CycE it was not below 20 µM.
For `Cc1nsc(Nc2cncc(C(F)(F)F)n2)c1C(=O)Nc1ccc(OC2CCN(CCF)CC2)nc1` [Example 14, N-(6-{[1-(2-Fluoroethyl)piperidin-4-yl]oxy}pyridin-3-yl)-3-methyl-5-{[6-(trifluoro-methyl)pyrazin-2-yl]amino}-1,2-thiazole-4-carboxamide], the values for the IC50 (in assay [1]; on CDK2/CycE) were 0.63 µM and 13 µM, respectively.
Turning to `Cc1nsc(Nc2cncc(C(F)(F)F)n2)c1C(=O)Nc1ccc(OC2CCN(CC(F)(F)F)CC2)nc1` [Example 16, 3-Methyl-N-(6-{[1-(2,2,2-trifluoroethyl)piperidin-4-yl]oxy}pyridin-3-yl)-5-{[6-(trifluoromethyl)pyrazin-2-yl]amino}-1,2-thiazole-4-carboxamide], the IC50 in assay [1] is 0.42 µM; at CDK2/CycE it was not below 20 µM.
The corresponding values for `CC(=O)N1CCC(Oc2ccc(NC(=O)c3c(C)nsc3Nc3cncc(C(F)(F)F)n3)cn2)CC1` [Example 17, N-{6-[(1-Acetylpiperidin-4-yl)oxy]pyridin-3-yl}-3-methyl-5-{[6-(trifluoromethyl)-pyrazin-2-yl]amino}-1,2-thiazole-4-carboxamide] are 0.3 µM and not below 20 µM.
Taken in the same sequence, the figures for `Cc1nsc(Nc2cnc3ccccc3n2)c1C(=O)Nc1ccc(OC2CCN(C(=O)OC(C)(C)C)CC2)nc1` [Example 18, tert-Butyl 4-{[5-({[3-methyl-5-(quinoxalin-2-ylamino)-1,2-thiazol-4-yl]carbonyl}-amino)pyridin-2-yl]oxy}piperidine-1-carboxylate] were 0.059 µM and not below 20 µM.
With `Cc1nsc(Nc2cnc3ccccc3n2)c1C(=O)Nc1ccc(OC2CCNCC2)nc1` [Example 19, 3-Methyl-N-[6-(piperidin-4-yloxy)pyridin-3-yl]-5-(quinoxalin-2-ylamino)-1,2-thiazole-4-carboxamide], the figures for the IC50 (in assay [1]; at CDK2/CycE) were 2.1 µM and not below 20 µM, respectively.
As for `Cc1nsc(Nc2cnc3ccccc3n2)c1C(=O)Nc1ccc(OC2CCN(CC(F)F)CC2)nc1` [Example 20, N-(6-{[1-(2,2-difluoroethyl)piperidin-4-yl]oxy}pyridin-3-yl)-3-methyl-5-(quinoxalin-2-ylamino)-1,2-thiazole-4-carboxamide], the IC50 in assay [1] was 0.18 µM; at CDK2/CycE, not below 20 µM.
The corresponding values for `CCN(CC)CCNC(=O)c1cccc(NC(=O)c2c(C)nsc2Nc2cc(C#N)ccn2)c1` [Example 174, 5-[(4-cyanopyridin-2-yl)amino]-N-(3-{[2-(diethylamino)ethyl]carbamoyl}phenyl)-3-methyl-1,2-thiazole-4-carboxamide] are 0.55 µM and more than 20 µM.
The corresponding values for `Cc1nsc(Nc2cc(C#N)ccn2)c1C(=O)Nc1cccc(C(=O)NC2CC2)c1` [Example 175, 5-[(4-cyanopyridin-2-yl)amino]-N-[3-(cyclopropylcarbamoyl)phenyl]-3-methyl-1,2-thiazole-4-carboxamide] are 2.6 µM and more than 20 µM.
The corresponding values for `COC(=O)CCc1cccc(NC(=O)c2c(C)nsc2Nc2ccc(C#N)cn2)c1` [Example 176, methyl 3-{3-[({5-[(5-cyanopyridin-2-yl)amino]-3-methyl-1,2-thiazol-4-yl}carbonyl)amino]phenyl}propanoate] are 0.24 µM and more than 20 µM.
In the case of `Cc1nsc(Nc2cc(C#N)ccn2)c1C(=O)Nc1ccc(NC(=O)OC(C)(C)C)cc1` [Example 177, tert-butyl {4-[({5-[(4-cyanopyridin-2-yl)amino]-3-methyl-1,2-thiazol-4-yl}carbonyl)amino]phenyl}carbamate], the values for the IC50 (in assay [1]; at CDK2/CycE) were 11 µM and more than 20 µM, respectively.
Taken in the same sequence, the figures for `Cc1nsc(Nc2cnc3ccccc3n2)c1C(=O)Nc1cccc(NC(=O)OC(C)(C)C)c1` [Example 178, tert-butyl [3-({[3-methyl-5-(quinoxalin-2-ylamino)-1,2-thiazol-4-yl]carbonyl}amino)-phenyl]carbamate] were 0.26 µM and more than 20 µM.
As for `Cc1nsc(Nc2ccc(C#N)cn2)c1C(=O)Nc1cccc(NC(=O)OC(C)(C)C)c1` [Example 179, tert-butyl {3-[({5-[(5-cyanopyridin-2-yl)amino]-3-methyl-1,2-thiazol-4-yl}carbonyl)amino]phenyl}carbamate], the IC50 in assay [1] was 2.2 µM; on CDK2/CycE, more than 20 µM.
Taken in the same sequence, the figures for `Cc1nsc(Nc2ccc(C#N)cn2)c1C(=O)Nc1cccc(N)c1` [Example 180, N-(3-aminophenyl)-5-[(5-cyanopyridin-2-yl)amino]-3-methyl-1,2-thiazole-4-carboxamide] were 4.3 µM and more than 20 µM.
Taken in the same sequence, the figures for `Cc1nsc(Nc2cnc3ccccc3n2)c1C(=O)Nc1ccc(C(=O)OC(C)(C)C)cc1` [Example 181, tert-butyl 4-({[3-methyl-5-(quinoxalin-2-ylamino)-1,2-thiazol-4-yl]carbonyl}amino)benzoate] were 0.1 µM and more than 20 µM.
Taken in the same sequence, the figures for `Cc1nsc(Nc2cc(C#N)ccn2)c1C(=O)Nc1ccc(C(=O)OC(C)(C)C)cc1` [Example 182, tert-butyl 4-[({5-[(4-cyanopyridin-2-yl)amino]-3-methyl-1,2-thiazol-4-yl}carbonyl)amino]benzoate] were 0.019 µM and more than 20 µM.
Consider `Cc1nsc(Nc2cc(C#N)ccn2)c1C(=O)Nc1cccc(NC(=O)C(C)(C)C)c1` [Example 183, 5-[(4-cyanopyridin-2-yl)amino]-N-{3-[(2,2-dimethylpropanoyl)amino]phenyl}-3-methyl-1,2-thiazole-4-carboxamide], for which the IC50 was 4.9 µM in assay [1] and more than 20 µM on CDK2/CycE.
In the case of `Cc1nsc(Nc2cnccn2)c1C(=O)Nc1ccc(C(=O)OC(C)(C)C)cc1` [Example 184, tert-butyl 4-({[3-methyl-5-(pyrazin-2-ylamino)-1,2-thiazol-4-yl]carbonyl}amino)benzoate], the IC50 in assay [1] is 0.14 µM; on CDK2/CycE, more than 20 µM.
On to `Cc1nsc(Nc2cnc3ccccc3n2)c1C(=O)Nc1ccc(NC(=O)C(C)(C)C)cc1` [Example 185, N-{4-[(2,2-dimethylpropanoyl)amino]phenyl}-3-methyl-5-(quinoxalin-2-ylamino)-1,2-thiazole-4-carboxamide], for which the IC50 is 4.7 µM in assay [1] and more than 20 µM at CDK2/CycE.
The corresponding values for `Cc1nsc(Nc2cnc3ccccc3n2)c1C(=O)Nc1cccc(NC(=O)C(C)(C)C)c1` [Example 186, N-{3-[(2,2-dimethylpropanoyl)amino]phenyl}-3-methyl-5-(quinoxalin-2-ylamino)-1,2-thiazole-4-carboxamide] are 3.8 µM and more than 20 µM.
`Cc1nsc(Nc2cnc3ccccc3n2)c1C(=O)Nc1ccc(C(=O)O)cc1` [Example 187, 4-({[3-methyl-5-(quinoxalin-2-ylamino)-1,2-thiazol-4-yl]carbonyl}amino)benzoic acid]: the IC50 was 1.4 µM in assay [1] and more than 20 µM at CDK2/CycE.
Taken in the same sequence, the figures for `Cc1nsc(Nc2cnc3ccccc3n2)c1C(=O)Nc1ccccc1S(C)(=O)=O` [Example 188, 3-methyl-N-[2-(methylsulfonyl)phenyl]-5-(quinoxalin-2-ylamino)-1,2-thiazole-4-carboxamide] were 10 µM and more than 20 µM.
The corresponding values for `Cc1nsc(Nc2cncc(C(F)(F)F)n2)c1C(=O)Nc1ccc(OC2CCCN(C(=O)OC(C)(C)C)C2)nc1` (stereo not drawn) [Example 189, tert-butyl 3-[(5-{[(3-methyl-5-{[6-(trifluoromethyl)pyrazin-2-yl]amino}-1,2-thiazol-4-yl)carbonyl]amino}pyridin-2-yl)oxy]piperidine-1-carboxylate] are 0.45 µM and more than 20 µM.
Taken in the same sequence, the figures for `Cc1nsc(Nc2cncc(C(F)(F)F)n2)c1C(=O)Nc1ccc(OCCCNC(=O)OC(C)(C)C)nc1` [Example 190, tert-butyl {3-[(5-{[(3-methyl-5-{[6-(trifluoromethyl)pyrazin-2-yl]amino}-1,2-thiazoL-4-yl)carbonyl]amino}pyridin-2-yl)oxy]propyl}carbamate] were 0.089 µM and more than 20 µM.
Regarding `Cc1nsc(Nc2cncc(C(F)(F)F)n2)c1C(=O)Nc1ccc(OCCNC(=O)OC(C)(C)C)nc1` [Example 191, tert-butyl {2-[(5-{[(3-methyl-5-{[6-(trifluoromethyl)pyrazin-2-yl]amino}-1,2-thiazol-4-yl)carbonyl]amino}pyridin-2-yl)oxy]ethyl}carbamate], the IC50 was 0.037 µM in assay [1] and 18 µM on CDK2/CycE.
For the compound `Cc1nsc(Nc2cncc(C(F)(F)F)n2)c1C(=O)Nc1ccc(C(=O)NCCN2CCCC(F)(F)C2)cc1` [Example 214, N-(4-{[2-(3,3-difluoropiperidin-1-yl)ethyl]carbamoyl}phenyl)-3-methyl-5-{[6-(trifluoromethyl)pyrazin-2-yl]amino}-1,2-thiazole-4-carboxamide], in assay [1], the IC50 worked out at 1.6 µM.
